The test system of experiment [1] is α1β glycine receptors (wild-type). Also on record: method as in earlier work. As to conditions: heterologously expressed α1β wild-type (WT) glycine receptors; cited from earlier work.
Experiment [2] deals with T1, human α1R271K-GlyR expressed in HEK 293 cells (Homo sapiens, UniProt P23415, R299K).
T1 sequence (P23415 29-457 R299K): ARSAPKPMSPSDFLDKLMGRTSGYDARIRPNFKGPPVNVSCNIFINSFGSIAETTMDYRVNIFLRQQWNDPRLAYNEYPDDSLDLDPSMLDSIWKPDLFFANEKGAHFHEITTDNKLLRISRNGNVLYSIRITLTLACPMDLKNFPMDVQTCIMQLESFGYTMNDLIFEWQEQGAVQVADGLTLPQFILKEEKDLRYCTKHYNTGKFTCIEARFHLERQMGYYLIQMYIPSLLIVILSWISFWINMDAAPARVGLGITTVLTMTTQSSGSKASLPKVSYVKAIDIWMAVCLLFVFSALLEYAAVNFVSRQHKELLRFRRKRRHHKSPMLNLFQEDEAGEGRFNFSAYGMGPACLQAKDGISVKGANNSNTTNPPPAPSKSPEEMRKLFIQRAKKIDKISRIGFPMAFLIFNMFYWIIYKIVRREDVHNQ
Nature of the experiment: Whole-cell patch-clamp, positive allosteric modulation of glycine (EC20) induced currents. The experiment is classed as cell-based. Also on record: expressed in transfected cells; host or cells: HEK 293 (transient, electroporation; pcDNA1amp vector). As to conditions: R271K. Here is the method: (§1) Drug-containing vials were vigorously vortexed for 30min.
(§2) A new cell was used for each protocol and at least four different experiments were performed for each condition. The concentration of the diluent EtOH corresponding to the highest drug concentration used was 17150 μM.
(§3) Currents were filtered at 2 kHz.
(§4) Currents were normalized to their own maximum response.
For orientation: In patch-clamp work, channel activity is measured electrically.

Experiment [3] concerns the target T2, human α1R271L-GlyR expressed in HEK 293 cells (Homo sapiens, UniProt P23415, R299L).
T2 sequence (P23415 29-457 R299L): T1 sequence (P23415 29-457 R299K) with K271L
The experiment is described as above. The experiment is classed as cell-based. Also on record: expressed in transfected cells; host or cells: HEK 293 (transient, electroporation; pcDNA1amp vector). The following applies: R271L. Here is the method: as §1, §2, §3, §4

Experiment [4] deals with T3, human α1R271Q-GlyR expressed in HEK 293 cells (Homo sapiens, UniProt P23415, R299Q).
T3 sequence (P23415 29-457 R299Q): T1 sequence (P23415 29-457 R299K) with K271Q
Described as above. Also on record: expressed in transfected cells; host or cells: HEK 293 (transient, electroporation; pcDNA1amp vector). The following applies: R271Q. Format: cell-based. The method, then: as §1, §2, §3, §4

The target of experiment [5] is T4, human α1S267I-GlyR expressed in HEK 293 cells (Homo sapiens, UniProt P23415, S295I).
T4 sequence (P23415 29-457 S295I): T1 sequence (P23415 29-457 R299K) with S267I, K271R
The description is as above. The experiment is classed as cell-based. Also on record: expressed in transfected cells; host or cells: HEK 293 (transient, electroporation; pcDNA1amp vector). The following applies: S267I. Here is the method: as §1, §2, §3, §4

For experiment [6], the target named is T3, human α1R271Q-GlyR expressed in HEK 293 cells. Briefly: Whole-cell patch-clamp, direct activation in the absence of glycine. The following applies: R271Q, 0.01-1000 μM. Format: cell-based. Also on record: expressed in transfected cells; host or cells: HEK 293 (transient, electroporation; pcDNA1amp vector). Here is the method:
as §1, §2, §3

The next experiment has as its system WT glycine receptor. The following applies: on cell mode, 4 s drug application; cited from earlier work.

Here are results for two molecules from paper PMC3517478 (BMC Neurology, 2012).

Where a chain is given by its changes, count along the chain named. “And” between values parts separate entries of the source, which are not always exact repeats. Equal values may be shown once.

The EC50 is the concentration needed to bring the measured effect to its halfway point. Take “4-chloro-2,6-dimethylphenol [4-chloropropofol]”: the “potency relative to propofol in enhancing glycine induced currents” value in experiment [1] is roughly 1000 fold. Also, the “positive allosteric modulation nH ± SEM” value in experiment [2] (EC20 glycine 100 μM) was found to be 0.3 ± 0.1; in experiment [3] (EC20 glycine 30 mM) it was 0.7 ± 0.3; in experiment [4] (EC20 glycine 10 mM), 0.9 ± 1.3; in experiment [5] (EC20 glycine 30 μM), 0.7 ± 0.3. The EC50 in experiment [2] (co-applied with sub-saturating (EC20) glycine 100 μM, read-out: positive allosteric modulation EC50 ± SEM) was 6 ± 2.3 µM; in experiment [3] (co-applied with sub-saturating (EC20) glycine 30 mM, read-out: positive allosteric modulation EC50 ± SEM) it was 0.1 ± 0.2 µM; in experiment [4] (co-applied with sub-saturating (EC20) glycine 10 mM, read-out: positive allosteric modulation EC50 ± SEM), 1.3 ± 0.6 µM; in experiment [5] (co-applied with sub-saturating (EC20) glycine 30 μM, read-out: positive allosteric modulation EC50 ± SEM), 55 µM and 55.1 µM. Further, the “positive allosteric modulation, potentiation [% of peak current amplitude] ± SEM” value worked out at 231 ± 174% in experiment [2] (maximal positive allosteric modulation, EC20 glycine 100 μM); 153 ± 46% in experiment [3] (maximal positive allosteric modulation, EC20 glycine 30 mM); 260 ± 52% in experiment [4] (maximal positive allosteric modulation, EC20 glycine 10 mM); 128 ± 14% in experiment [5] (maximal positive allosteric modulation, EC20 glycine 30 μM). For the same molecule, the direct activation result in experiment [6] is “only a marginal direct activation”.

As to `NCC(=O)O` [glycine], the rise time with WT glycine receptor was 0.4 ms.
